Source: patent US20080177075A1, “Compositions For Progeny Gender Control” (AQ+PLC Stephen Mabbott Associates, priority 2004, published 2008)

Excerpt: Suitable aqueous based compositions can be prepared by using an intermediate diluent such as a polyol, including glycols, preferably propylene glycol, glycerine, or sorbitol, and a wetting agent.

SMILES: Oc1cccc2cccnc12 [8-hydroxyquinoline]
- solubility in aqueous solution: generally insoluble or only poorly soluble
